Data from patent US20230085307A1, “PYRIDAZINONE COMPOUND AND HERBICIDE” (NISSAN CHEMICAL CORPORATION, priority 2019, published 2023).

How the values were obtained:
Italian ryegrass [1] = assay: Test Example 4: herbicidal effect by soil treatment (Table 19, symbol K); type: in vivo, Italian ryegrass (Lolium multiflorum); details: amount of applied herbicide 320 g/ha
Outline: (§1)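 Herbicidal effect was rated 3 weeks after treatment, using the scoring criteria of an earlier test. The compound, formulated as an emulsion and diluted in water to a set herbicide amount, had been sprayed uniformly on soil over freshly sown seeds. Growth took place in a greenhouse at 25° C. to 30° C.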

false cleavers [2] = assay: Test Example 5: herbicidal effect by foliage application, plastic box (Table 20, symbol Q); type: in vivo, false cleavers (Galium spurium); details: foliage application, 320 g/ha, three weeks after application
Outline: (§2)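 Foliar spray test: emulsion formulation diluted in water to a set application rate, sprayed onto 14-day-old plants raised in diluvial soil at 25° C to 30° C under glass. Both herbicidal effect and crop effect rated visually three weeks later.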

velvetleaf [3] = assay: Test Example 4: herbicidal effect by soil treatment (Table 19, symbol M); type: in vivo, velvetleaf (Abutilon theophrasti); details: amount of applied herbicide 320 g/ha
Outline: as §1

false cleavers [4] = assay: Test Example 4: herbicidal effect by soil treatment (Table 19, symbol Q); type: in vivo, false cleavers (Galium spurium); details: amount of applied herbicide 320 g/ha
Outline: as §1

wild oat [5] = assay: Test Example 5: herbicidal effect by foliage application, plastic box (Table 20, symbol I); type: in vivo, wild oat (Avena fatua); details: foliage application, 320 g/ha, three weeks after application
Outline: as §2

barnyard grass [6] = assay: Test Example 5: herbicidal effect by foliage application, plastic box (Table 20, symbol H); type: in vivo, barnyard grass (Echinochloa crus-galli); details: foliage application, 320 g/ha, three weeks after application
Outline: as §2

southern crabgrass [7] = assay: Test Example 5: herbicidal effect by foliage application, plastic box (Table 20, symbol F); type: in vivo, southern crabgrass (Digitaria ciliaris); details: foliage application, 320 g/ha, three weeks after application
Outline: as §2

windgrass [8] = assay: Test Example 4: herbicidal effect by soil treatment (Table 19, symbol L); type: in vivo, windgrass (Apera spica-venti); details: amount of applied herbicide 320 g/ha
Outline: as §1

Italian ryegrass [9] = assay: Test Example 5: herbicidal effect by foliage application, plastic box (Table 20, symbol K); type: in vivo, Italian ryegrass (Lolium multiflorum); details: foliage application, 320 g/ha, three weeks after application
Outline: as §2

chickweed [10] = assay: Test Example 5: herbicidal effect by foliage application, plastic box (Table 20, symbol P); type: in vivo, common chickweed (Stellaria media); details: foliage application, 320 g/ha, three weeks after application
Outline: as §2

chickweed [11] = assay: Test Example 4: herbicidal effect by soil treatment (Table 19, symbol P); type: in vivo, common chickweed (Stellaria media); details: amount of applied herbicide 320 g/ha
Outline: as §1

rice flat sedge = assay: Test Example 3: herbicidal effect by foliage application, Wagner pot (Table 18, symbol E); type: in vivo, rice flat sedge (Cyperus iria); details: 320 g/ha
Outline: (§3)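 Plants were sown in alluvial soil held under 0.1–0.5 cm standing water and grown 14 days in a greenhouse at 25–30 °C. An emulsifiable formulation, water-diluted to the set dose, was then sprayed onto the foliage, and effects were scored three weeks later using previously defined criteria.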

barnyard grass [12] = assay: Test Example 4: herbicidal effect by soil treatment (Table 19, symbol H); type: in vivo, barnyard grass (Echinochloa crus-galli); details: amount of applied herbicide 320 g/ha
Outline: as §1

persian speedwell [13] = assay: Test Example 4: herbicidal effect by soil treatment (Table 19, symbol R); type: in vivo, Persian speedwell (Veronica persica); details: amount of applied herbicide 320 g/ha
Outline: as §1

windgrass [14] = assay: Test Example 5: herbicidal effect by foliage application, plastic box (Table 20, symbol L); type: in vivo, windgrass (Apera spica-venti); details: foliage application, 320 g/ha, three weeks after application
Outline: as §2

lambsquarters [15] = assay: Test Example 4: herbicidal effect by soil treatment (Table 19, symbol O); type: in vivo, lambsquarters (Chenopodium album); details: amount of applied herbicide 320 g/ha
Outline: as §1

southern crabgrass [16] = assay: Test Example 4: herbicidal effect by soil treatment (Table 19, symbol F); type: in vivo, southern crabgrass (Digitaria ciliaris); details: amount of applied herbicide 320 g/ha
Outline: as §1

redroot pigweed [17] = assay: Test Example 5: herbicidal effect by foliage application, plastic box (Table 20, symbol N); type: in vivo, redroot pigweed (Amaranthus retroflexus); details: foliage application, 320 g/ha, three weeks after application
Outline: as §2

Chinese sprangletop = assay: Test Example 3: herbicidal effect by foliage application, Wagner pot (Table 18, symbol D); type: in vivo, chinese sprangletop (Leptochloa chinensis); details: 320 g/ha
Outline: as §3

blackgrass [18] = assay: Test Example 5: herbicidal effect by foliage application, plastic box (Table 20, symbol J); type: in vivo, blackgrass (Alopecurus myosuroides); details: foliage application, 320 g/ha, three weeks after application
Outline: as §2

wild oat [19] = assay: Test Example 4: herbicidal effect by soil treatment (Table 19, symbol I); type: in vivo, wild oat (Avena fatua); details: amount of applied herbicide 320 g/ha
Outline: as §1

lambsquarters [20] = assay: Test Example 5: herbicidal effect by foliage application, plastic box (Table 20, symbol O); type: in vivo, lambsquarters (Chenopodium album); details: foliage application, 320 g/ha, three weeks after application
Outline: as §2

green foxtail [21] = assay: Test Example 4: herbicidal effect by soil treatment (Table 19, symbol G); type: in vivo, green foxtail (Setaria viridis); details: amount of applied herbicide 320 g/ha
Outline: as §1

barnyard grass [22] = assay: Test Example 3: herbicidal effect by foliage application, Wagner pot (Table 18, symbol H); type: in vivo, barnyard grass (Echinochloa crus-galli); details: 320 g/ha
Outline: as §3

blackgrass [23] = assay: Test Example 4: herbicidal effect by soil treatment (Table 19, symbol J); type: in vivo, blackgrass (Alopecurus myosuroides); details: amount of applied herbicide 320 g/ha
Outline: as §1

velvetleaf [24] = assay: Test Example 5: herbicidal effect by foliage application, plastic box (Table 20, symbol M); type: in vivo, velvetleaf (Abutilon theophrasti); details: foliage application, 320 g/ha, three weeks after application
Outline: as §2

green foxtail [25] = assay: Test Example 5: herbicidal effect by foliage application, plastic box (Table 20, symbol G); type: in vivo, green foxtail (Setaria viridis); details: foliage application, 320 g/ha, three weeks after application
Outline: as §2

persian speedwell [26] = assay: Test Example 5: herbicidal effect by foliage application, plastic box (Table 20, symbol R); type: in vivo, Persian speedwell (Veronica persica); details: foliage application, 320 g/ha, three weeks after application
Outline: as §2

redroot pigweed [27] = assay: Test Example 4: herbicidal effect by soil treatment (Table 19, symbol N); type: in vivo, redroot pigweed (Amaranthus retroflexus); details: amount of applied herbicide 320 g/ha
Outline: as §1

`COc1c(F)cccc1-c1sc2ccccc2c1-c1c(O)c(C)nn(C)c1=O` [1-054] was tested, and the “herbicidal effect rating, K: Italian ryegrass” value (Italian ryegrass [1]) was 3 (Herbicidal rate of 40% or more and less than 70%), the “herbicidal effect grade, Q: false cleavers” value (false cleavers [2]) was 4 (Herbicidal rate of 70% or more and less than 90%) and the “herbicidal effect rating, M: velvetleaf” value (velvetleaf [3]) was 0 (Herbicidal rate of 5% or less (almost no effect)). For the same compound, the “herbicidal effect rating, Q: false cleavers” value (false cleavers [4]) was 0 (Herbicidal rate of 5% or less (almost no effect)), the “herbicidal effect grade, I: wild oat” value (wild oat [5]) was 3 (Herbicidal rate of 40% or more and less than 70%) and the “herbicidal effect grade, H: barnyard grass” value (barnyard grass [6]) was 3 (Herbicidal rate of 40% or more and less than 70%). For the same compound, the “herbicidal effect grade, F: southern crabgrass” value (southern crabgrass [7]) was 2 (Herbicidal rate of 20% or more and less than 40%), the “herbicidal effect rating, L: windgrass” value (windgrass [8]) was 0 (Herbicidal rate of 5% or less (almost no effect)) and the “herbicidal effect grade, K: Italian ryegrass” value (Italian ryegrass [9]) was 4 (Herbicidal rate of 70% or more and less than 90%). The “herbicidal effect grade, P: chickweed” value (chickweed [10]) was 5 (Herbicidal rate of 90% or more (almost completely withered)), the “herbicidal effect rating, P: chickweed” value (chickweed [11]) was 0 (Herbicidal rate of 5% or less (almost no effect)) and the “herbicidal effect on E (rice flat sedge), rating 0-5” value (rice flat sedge) was 4 (Herbicidal rate of 70% or more and less than 90%). For the same compound, the “herbicidal effect rating, H: barnyard grass” value (barnyard grass [12]) was 2 (Herbicidal rate of 20% or more and less than 40%), the “herbicidal effect rating, R: persian speedwell” value (persian speedwell [13]) was 0 (Herbicidal rate of 5% or less (almost no effect)) and the “herbicidal effect grade, L: windgrass” value (windgrass [14]) was 0 (Herbicidal rate of 5% or less (almost no effect)). The “herbicidal effect rating, O: lambsquarters” value (lambsquarters [15]) was 0 (Herbicidal rate of 5% or less (almost no effect)), the “herbicidal effect rating, F: southern crabgrass” value (southern crabgrass [16]) was 0 (Herbicidal rate of 5% or less (almost no effect)) and the “herbicidal effect grade, N: redroot pigweed” value (redroot pigweed [17]) was 5 (Herbicidal rate of 90% or more (almost completely withered)). For the same compound, the “herbicidal effect on D (Chinese sprangletop), rating 0-5” value (Chinese sprangletop) was 3 (Herbicidal rate of 40% or more and less than 70%), the “herbicidal effect grade, J: blackgrass” value (blackgrass [18]) was 0 (Herbicidal rate of 5% or less (almost no effect)) and the “herbicidal effect rating, I: wild oat” value (wild oat [19]) was 0 (Herbicidal rate of 5% or less (almost no effect)). The “herbicidal effect grade, O: lambsquarters” value (lambsquarters [20]) was 5 (Herbicidal rate of 90% or more (almost completely withered)), the “herbicidal effect rating, G: green foxtail” value (green foxtail [21]) was 0 (Herbicidal rate of 5% or less (almost no effect)) and the “herbicidal effect on H (barnyard grass), rating 0-5” value (barnyard grass [22]) was 5 (Herbicidal rate of 90% or more (almost completely withered)). For the same compound, the “herbicidal effect rating, J: blackgrass” value (blackgrass [23]) was 3 (Herbicidal rate of 40% or more and less than 70%), the “herbicidal effect grade, M: velvetleaf” value (velvetleaf [24]) was 5 (Herbicidal rate of 90% or more (almost completely withered)) and the “herbicidal effect grade, G: green foxtail” value (green foxtail [25]) was 4 (Herbicidal rate of 70% or more and less than 90%). The “herbicidal effect grade, R: persian speedwell” value (persian speedwell [26]) was 1 (Herbicidal rate of 5% or more and less than 20%) and the “herbicidal effect rating, N: redroot pigweed” value (redroot pigweed [27]) was 0 (Herbicidal rate of 5% or less (almost no effect)).

In the case of `COc1c(C)cc(-c2sc3ccccc3c2-c2c(O)c(C)nn(C)c2=O)cc1C` [1-074], the “herbicidal effect rating, K: Italian ryegrass” value (Italian ryegrass [1]) is reported as 0 (Herbicidal rate of 5% or less (almost no effect)), the “herbicidal effect grade, Q: false cleavers” value (false cleavers [2]) is reported as 0 (Herbicidal rate of 5% or less (almost no effect)) and the “herbicidal effect rating, M: velvetleaf” value (velvetleaf [3]) is reported as 0 (Herbicidal rate of 5% or less (almost no effect)). For the same compound, the “herbicidal effect rating, Q: false cleavers” value (false cleavers [4]) was 0 (Herbicidal rate of 5% or less (almost no effect)), the “herbicidal effect grade, I: wild oat” value (wild oat [5]) was 0 (Herbicidal rate of 5% or less (almost no effect)) and the “herbicidal effect grade, H: barnyard grass” value (barnyard grass [6]) was 0 (Herbicidal rate of 5% or less (almost no effect)). For the same compound, the “herbicidal effect grade, F: southern crabgrass” value (southern crabgrass [7]) was 0 (Herbicidal rate of 5% or less (almost no effect)), the “herbicidal effect rating, L: windgrass” value (windgrass [8]) was 0 (Herbicidal rate of 5% or less (almost no effect)) and the “herbicidal effect grade, K: Italian ryegrass” value (Italian ryegrass [9]) was 4 (Herbicidal rate of 70% or more and less than 90%). The “herbicidal effect grade, P: chickweed” value (chickweed [10]) was 5 (Herbicidal rate of 90% or more (almost completely withered)), the “herbicidal effect rating, P: chickweed” value (chickweed [11]) was 0 (Herbicidal rate of 5% or less (almost no effect)) and the “herbicidal effect on E (rice flat sedge), rating 0-5” value (rice flat sedge) was 5 (Herbicidal rate of 90% or more (almost completely withered)). The “herbicidal effect rating, H: barnyard grass” value (barnyard grass [12]) was 0 (Herbicidal rate of 5% or less (almost no effect)), the “herbicidal effect rating, R: persian speedwell” value (persian speedwell [13]) was 3 (Herbicidal rate of 40% or more and less than 70%) and the “herbicidal effect grade, L: windgrass” value (windgrass [14]) was 0 (Herbicidal rate of 5% or less (almost no effect)). The “herbicidal effect rating, O: lambsquarters” value (lambsquarters [15]) was 0 (Herbicidal rate of 5% or less (almost no effect)), the “herbicidal effect rating, F: southern crabgrass” value (southern crabgrass [16]) was 0 (Herbicidal rate of 5% or less (almost no effect)) and the “herbicidal effect grade, N: redroot pigweed” value (redroot pigweed [17]) was 0 (Herbicidal rate of 5% or less (almost no effect)). The “herbicidal effect on D (Chinese sprangletop), rating 0-5” value (Chinese sprangletop) was 0 (Herbicidal rate of 5% or less (almost no effect)), the “herbicidal effect grade, J: blackgrass” value (blackgrass [18]) was 0 (Herbicidal rate of 5% or less (almost no effect)) and the “herbicidal effect rating, I: wild oat” value (wild oat [19]) was 0 (Herbicidal rate of 5% or less (almost no effect)). For the same compound, the “herbicidal effect grade, O: lambsquarters” value (lambsquarters [20]) was 0 (Herbicidal rate of 5% or less (almost no effect)), the “herbicidal effect rating, G: green foxtail” value (green foxtail [21]) was 0 (Herbicidal rate of 5% or less (almost no effect)) and the “herbicidal effect on H (barnyard grass), rating 0-5” value (barnyard grass [22]) was 3 (Herbicidal rate of 40% or more and less than 70%). The “herbicidal effect rating, J: blackgrass” value (blackgrass [23]) was 0 (Herbicidal rate of 5% or less (almost no effect)), the “herbicidal effect grade, M: velvetleaf” value (velvetleaf [24]) was 0 (Herbicidal rate of 5% or less (almost no effect)) and the “herbicidal effect grade, G: green foxtail” value (green foxtail [25]) was 0 (Herbicidal rate of 5% or less (almost no effect)). For the same compound, the “herbicidal effect grade, R: persian speedwell” value (persian speedwell [26]) was 5 (Herbicidal rate of 90% or more (almost completely withered)) and the “herbicidal effect rating, N: redroot pigweed” value (redroot pigweed [27]) was 0 (Herbicidal rate of 5% or less (almost no effect)).
